# US20240270740A1, “INHIBITORS OF CYCLIC GMP-AMP SYNTHASE AND USES THEREOF” (Ventus Therapeutics U.S., Inc., priority 2022, published 2024)
# Molecular target: hcGAS (Homo sapiens, UniProt Q8N884)
# Experiment: hcGAS LCMS assay (direct measurement of cGAMP production)
# Type: biochemical
# Settings: 0.5 nM hcGAS, 100 μM ATP, 100 μM GTP, 25 nM dsDNA, 4 h incubation
# Procedure: cGAS catalyzes the cyclization of ATP and GTP to produce cGAMP, which is the activating ligand of STING. Human cGAS (hcGAS) inhibition can thus be quantified by measuring how much cGAMP is formed either indirectly, by monitoring ATP-depletion as in the hcGAS Kinase-Glo assay (as described below), or directly, such as using the hcGAS LCMS assay (as described below).
# Compounds were tested for their h-cGAS inhibition activity using direct measurement of cGAMP production by LC/MS. Briefly, compounds were incubated with enzyme and substrates for 4 hours (see Table C), before the reaction was stopped with 3 volumes of 70/30 Acetonitrile/H2O mix containing 0.15 mM cGAMP-^13C10^5N5 as internal standard and mixed for […]. After centrifugation (3700 rpm, 10 min, 10° Celsius), […] of each reaction was collected and mixed to equal volume of Acetonitrile. Samples were then analyzed on Qexective (Column: XBridge BEH Amide Column, 130 Å, 3.5 μm, 3 mm×50 mm, Mobile phase A: 10 mM Ammonium acetate in 95/5% H2O/Acetonitrile (0.5% DMSO), Mobile phase B: Acetonitrile (0.5% DMSO).
# The results of the assay, expressed as IC50 values, are reported in Table D with the following designations: A represents an IC50 value<0.005 μM; B represents an IC50 value≥0.005 μM and <0.02 μM, C represents an IC50 value≥0.02 μM and <0.06 μM; D represents an IC50 value≥0.06 and <0.2 μM; E represents an IC50 value≥0.2.
# Sequence of hcGAS (Q8N884 whole entry): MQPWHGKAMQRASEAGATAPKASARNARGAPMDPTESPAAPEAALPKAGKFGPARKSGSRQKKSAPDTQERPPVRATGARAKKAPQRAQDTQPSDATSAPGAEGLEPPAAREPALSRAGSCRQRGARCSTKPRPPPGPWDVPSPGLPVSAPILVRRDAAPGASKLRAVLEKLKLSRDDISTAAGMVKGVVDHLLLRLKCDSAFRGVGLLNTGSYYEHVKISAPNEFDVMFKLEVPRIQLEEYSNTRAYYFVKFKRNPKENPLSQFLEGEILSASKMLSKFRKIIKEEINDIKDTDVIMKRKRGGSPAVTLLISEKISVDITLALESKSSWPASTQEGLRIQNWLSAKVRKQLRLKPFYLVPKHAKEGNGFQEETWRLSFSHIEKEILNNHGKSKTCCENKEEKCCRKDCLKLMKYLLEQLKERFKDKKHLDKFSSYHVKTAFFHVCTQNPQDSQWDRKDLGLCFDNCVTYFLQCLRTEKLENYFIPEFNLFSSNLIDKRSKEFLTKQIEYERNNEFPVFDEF
row,SMILES,IC50 [nM]
1,"COC[C@H]1[C@H](OC)CCN1c1cc(C(=O)Nc2nnc(-n3nccc3C)s2)oc(=O)c1OC [Compound 211, 3-methoxy-4-((2S,3R)-3-methoxy-2-(methoxymethyl)pyrrolidin-1-yl)-N-(5-(5-methyl-1H-pyrazol-1-yl)-1,3,4-thiadiazol-2-yl)-2-oxo-2H-pyran-6-carboxamide]",5 to 20
2,"COc1c(N2CC[C@H](OC)C2=O)cc(C(=O)Nc2nnc(-n3nccc3C)s2)oc1=O [Compound 151, 5-methoxy-4-[(3S)-3-methoxy-2-oxopyrrolidin-1-yl]-N-[5-(5-methylpyrazol-1-yl)-1,3,4-thiadiazol-2-yl]-6-oxopyran-2-carboxamide]",5 to 20
3,"COC[C@H]1CCC[C@H]1Nc1cc(C(=O)Nc2nnc(-n3nccc3C)s2)oc(=O)c1OC (single isomer, unassigned) [Compound 80*]",≥ 200
4,"COc1c(N[C@H]2CCC[C@H]2OC)cc(C(=O)Nc2nnc(-n3nccc3C)s2)oc1=O (single isomer, unassigned) [214*]",5 to 20
5,"COc1c(N2CC[C@@H](OC)C2=O)cc(C(=O)Nc2nnc(-n3nccc3C)s2)oc1=O [Compound 150, (R)-3-methoxy-4-(3-methoxy-2-oxopyrrolidin-1-yl)-N-(5-(5-methyl-1H-pyrazol-1-yl)-1,3,4-thiadiazol-2-yl)-2-oxo-2H-pyran-6-carboxamide]",5 to 20
6,"COCCN(CCO)c1cc(C(=O)Nc2nnc(-n3nccc3C)s2)oc(=O)c1OC (single isomer, unassigned) [Compound 157, 4-((2-hydroxyethyl)(2-methoxyethyl)amino)-3-methoxy-N-(5-(5-methyl-1H-pyrazol-1-yl)-1,3,4-thiadiazol-2-yl)-2-oxo-2H-pyran-6-carboxamide]",≥ 200
7,COc1c(N2CCCCC2=O)cc(C(=O)Nc2nnc(-n3nccc3C)s2)oc1=O [Compound 96],< 5
8,"COc1c(N[C@H]2CCC[C@@H]2OC)cc(C(=O)Nc2nnc(-n3nccc3C)s2)oc1=O (single isomer, unassigned) [4*]",5 to 20
9,"COc1c(N(C)[C@@H]2CCC[C@@H]2OC)cc(C(=O)Nc2nnc(-n3nccc3C)s2)oc1=O (racemic) [Rac-153, 3-methoxy-4-(((cis)-2-methoxycyclopentyl)(methyl)amino)-N-(5-(5-methyl-1H-pyrazol-1-yl)-1,3,4-thiadiazol-2-yl)-2-oxo-2H-pyran-6-carboxamide]",5 to 20
10,"COC[C@@H](Cc1ccccc1)Nc1cc(C(=O)Nc2nnc(-n3nccc3C)s2)oc(=O)c1OC [Compound 170, (R)-3-methoxy-4-((1-methoxy-3-phenylpropan-2-yl)amino)-N-(5-(5-methyl-1H-pyrazol-1-yl)-1,3,4-thiadiazol-2-yl)-2-oxo-2H-pyran-6-carboxamide]",5 to 20
11,"COc1c(N[C@H]2COC[C@H]2OC)cc(C(=O)Nc2nnc(-n3nccc3C)s2)oc1=O [Compound 160, 3-Methoxy-4-(((3S,4S)-4-methoxytetrahydrofuran-3-yl)amino)-N-(5-(5-methyl-1H-pyrazol-1-yl)-1,3,4-thiadiazol-2-yl)-2-oxo-2H-pyran-6-carboxamide]",5 to 20
12,"COc1c(NC23CCC(CC2)CC3)cc(C(=O)Nc2nnc(-n3nccc3C)s2)oc1=O [Compound 18, 4-(bicyclo[2.2.2]octan-1-ylamino)-3-methoxy-N-(5-(5-methyl-1H-pyrazol-1-yl)-1,3,4-thiadiazol-2-yl)-2-oxo-2H-pyran-6-carboxamide]",< 5
13,"COC[C@H](Cc1ccccc1)Nc1cc(C(=O)Nc2nnc(-n3nccc3C)s2)oc(=O)c1OC [Compound 165, (S)-3-methoxy-4-((1-methoxy-3-phenylpropan-2-yl)amino)-N-(5-(5-methyl-1H-pyrazol-1-yl)-1,3,4-thiadiazol-2-yl)-2-oxo-2H-pyran-6-carboxamide]",60 to 200
14,"COc1c(NC2CCCC2(C)O)cc(C(=O)Nc2nnc(-n3nccc3C)s2)oc1=O (racemic) [Rac-167, 4-((2-hydroxy-2-methylcyclopentyl)amino)-3-methoxy-N-(5-(5-methyl-1H-pyrazol-1-yl)-1,3,4-thiadiazol-2-yl)-2-oxo-2H-pyran-6-carboxamide]",< 5
15,"COc1c(N[C@H]2CCC[C@H]2C#N)cc(C(=O)Nc2nnc(-n3nccc3C)s2)oc1=O (single isomer, unassigned) [Compound 74]",< 5
16,"Cc1ccnn1-c1nnc(NC(=O)c2cc3c(c(=O)o2)OCCN3[C@@H]2CCC[C@@H]2C#N)s1 [Compound 223, 1-((1R,2S)-2-cyanocyclopentyl)-N-(5-(5-methyl-1H-pyrazol-1-yl)-1,3,4-thiadiazol-2-yl)-5-oxo-1,2,3,5-tetrahydropyrano[3,4-b][1,4]oxazine-7-carboxamide]",5 to 20
17,"COc1c(N[C@H]2CCC[C@H]2OC)cc(C(=O)Nc2nnc(-c3c(Cl)ccn3C)s2)oc1=O (single isomer, unassigned) [47*]",< 5
18,"COc1c(N[C@H]2CCC[C@H]2O)cc(C(=O)Nc2nnc(-c3c(Cl)ccn3C)s2)oc1=O [Compound 83, N-(5-(3-chloro-1-methyl-1H-pyrrol-2-yl)-1,3,4-thiadiazol-2-yl)-4-(((1S,2R)-2-hydroxycyclopentyl)amino)-3-methoxy-2-oxo-2H-pyran-6-carboxamide]",< 5

# Results, then the compound that gave them:
row,IC50 [nM],SMILES
1,60 to 200,"COCCNc1cc(C(=O)Nc2nnc(-c3c(C#N)csc3C)s2)oc(=O)c1OC [Compound 140, N-(5-(4-cyano-2-methylthiophen-3-yl)-1,3,4-thiadiazol-2-yl)-3-methoxy-4-((2-methoxyethyl)amino)-2-oxo-2H-pyran-6-carboxamide]"
2,60 to 200,"COc1c(NCCOC2CC2)cc(C(=O)Nc2nnc(-n3nccc3C)s2)oc1=O [Compound 168, 4-((2-cyclopropoxyethyl)amino)-3-methoxy-N-(5-(5-methyl-1H-pyrazol-1-yl)-1,3,4-thiadiazol-2-yl)-2-oxo-2H-pyran-6-carboxamide]"
3,20 to 60,"COC[C@@H](C)Nc1cc(C(=O)Nc2nnc(-n3nccc3CO)s2)oc(=O)c1OC [Compound 142, (R)—N-(5-(5-(hydroxymethyl)-1H-pyrazol-1-yl)-1,3,4-thiadiazol-2-yl)-3-methoxy-4-((1-methoxypropan-2-yl)amino)-2-oxo-2H-pyran-6-carboxamide]"
4,20 to 60,"COc1c(NCCOCC(F)F)cc(C(=O)Nc2nnc(-n3nccc3C)s2)oc1=O [Compound 17, 4-((2-(2,2-difluoroethoxy)ethyl)amino)-3-methoxy-N-(5-(5-methyl-1H-pyrazol-1-yl)-1,3,4-thiadiazol-2-yl)-2-oxo-2H-pyran-6-carboxamide]"
5,< 5,"COc1c(N[C@H](C)[C@@H](C)OC)cc(C(=O)Nc2nnc(-n3nccc3C)s2)oc1=O [Compound 161, 5-methoxy-4-{[(2R,3R)-3-methoxybutan-2-yl]amino}-N-[5-(5-methylpyrazol-1-yl)-1,3,4-thiadiazol-2-yl]-6-oxopyran-2-carboxamide]"
6,5 to 20,"COC[C@@H](C)Nc1cc(C(=O)Nc2nnc(-c3sccc3Cl)s2)oc(=O)c1OC [Compound 94, (R)—N-(5-(3-chlorothiophen-2-yl)-1,3,4-thiadiazol-2-yl)-3-methoxy-4-((1-methoxypropan-2-yl)amino)-2-oxo-2H-pyran-6-carboxamide]"
7,< 5,"COCC(COC)Nc1cc(C(=O)Nc2nnc(-c3c(Cl)ccn3C)s2)oc(=O)c1OC [Compound 84, N-(5-(3-chloro-1-methyl-1H-pyrrol-2-yl)-1,3,4-thiadiazol-2-yl)-4-((1,3-dimethoxypropan-2-yl)amino)-3-methoxy-2-oxo-2H-pyran-6-carboxamide]"
8,< 5,"COC[C@H](Nc1cc(C(=O)Nc2nnc(-n3nccc3C)s2)oc(=O)c1OC)C(C)C [Compound 78, (R)-3-methoxy-4-((1-methoxy-3-methylbutan-2-yl)amino)-N-(5-(5-methyl-1H-pyrazol-1-yl)-1,3,4-thiadiazol-2-yl)-2-oxo-2H-pyran-6-carboxamide]"
9,20 to 60,"CC[C@H](COC)Nc1cc(C(=O)Nc2nnc(-n3nccc3C)s2)oc(=O)c1OC (single isomer, unassigned) [191*]"
10,60 to 200,COc1c(N[C@@H](C)[C@H](C)OC)cc(C(=O)Nc2nnc(-n3nccc3C)s2)oc1=O [Compound 163]
11,< 5,"COc1c(NC[C@H](C)OC)cc(C(=O)Nc2nnc(-c3c(Cl)ccn3C)s2)oc1=O [Compound 193, (S)-N-(5-(3-chloro-1-methyl-1H-pyrrol-2-yl)-1,3,4-thiadiazol-2-yl)-3-methoxy-4-((2-methoxypropyl)amino)-2-oxo-2H-pyran-6-carboxamide]"
12,5 to 20,"COc1c(NC[C@H]2CCO2)cc(C(=O)Nc2nnc(-n3nccc3C)s2)oc1=O [Compound 118, (R)-3-methoxy-N-(5-(5-methyl-1H-pyrazol-1-yl)-1,3,4-thiadiazol-2-yl)-4-((oxetan-2-ylmethyl)amino)-2-oxo-2H-pyran-6-carboxamide]"
13,60 to 200,"COCCNc1cc(C(=O)Nc2nnc(-c3c(Cl)nsc3Cl)s2)oc(=O)c1OC [Compound 156, N-(5-(3,5-dichloroisothiazol-4-yl)-1,3,4-thiadiazol-2-yl)-3-methoxy-4-((2-methoxyethyl)amino)-2-oxo-2H-pyran-6-carboxamide]"
